Read-outs that look alike come from different tables or passages of the source.
Legend:
KRAS^G12D/cRAF = KRAS^G12D/cRAF (Homo sapiens, UniProt P01116, G12D); experiment: KRAS G12D/cRAF binding test (Alphalisa); details: His-tagged KRAS G12D + GMPPNP, GST-tagged cRAF
Summary of the method: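 His-tagged KRAS G12D loaded with GMPPNP was incubated with compound (8-point 3-fold series from 5 mM DMSO stock) and then GST-cRAF for 15 min at room temperature. AlphaLISA detection followed after 60 min. IC50 came from a four-parameter fit of signal ratios against the DMSO control.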

AGS cell = experiment: Anti-proliferative 2D CTG assay, AGS cells; format: cell-based; details: Homo sapiens, 72 h
Summary of the method: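 Cells seeded at 1000/well overnight, then treated with 10-point 1:5 dilutions ([…], 0.1% DMSO) for 3 days at 37° C. Viability read by CellTiter-Glo luminescence; % inhibition versus HPE/ZPE controls, IC50 from four-parameter fit.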

[1] = Pharmacokinetic experiment in mice; details: male, ICR, mouse, plasma
Protocol: (§1) ICR mice male N=3 original source: Shanghai Sippr-Bk Lab Animal Co., Ltd.
(§2) Single oral (PO) administration in ICR mice: The compounds were weighed and added to the solvent of 0.5% CMC+1% Tween 80 respectively, well shaken, and ultrasonicated to get a light yellow suspension. 3 mice were administered orally after fasting overnight. The dose was 10 mg/kg.
(§3) About 90 μL/timepoint blood was collected through the orbital cavity, anticoagulated with sodium heparin, placed on ice after collection, and centrifuged to separate the plasma within 1 hour (centrifugation conditions: 8000 rpm, 6 m 2-8C). The blood collection timepoints were 0, 0.25, 0.5, 1, 2, 4, 6, 8 and 24 h. The samples were stored in a −20° C. refrigerator.
(§4) The plasma sample was 40 μL, 160 μL of ice-cold acetonitrile containing internal standard was added, vortexed for 1 minute, and centrifuged at 18,000 rpm for 10 minutes. The supernatant was transferred to a 96-well plate, and 5 μL was injected into LC-MS/MS for analysis.

in vivo = details: male, ICR, mouse, po, 10 mg/kg
Protocol: as §1, §2, §3, §4

[2] = AGS cells, incubated 3 days, CTG, class symbols, read-out: AGS cell IC50
[3] = AGS cells, incubated 3 days, CTG, numeric values, read-out: AGS cell IC50

Chain of KRAS^G12D/cRAF (P01116 1-188 isoform P01116-2 G12D): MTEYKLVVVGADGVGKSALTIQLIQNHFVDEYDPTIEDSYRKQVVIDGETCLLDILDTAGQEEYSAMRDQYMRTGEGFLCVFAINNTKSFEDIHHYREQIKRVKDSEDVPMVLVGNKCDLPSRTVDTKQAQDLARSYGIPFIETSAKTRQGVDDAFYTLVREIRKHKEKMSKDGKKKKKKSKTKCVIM

In the case of `[2H]C([2H])([2H])OCC12CCC(CN(c3nc(OC[C@@]45CCCN4C[C@H](F)C5)nc4c(F)c(-c5cc(O)cc6ccc(F)c(C#C)c56)ncc34)C1)N2` (stereo partly drawn) [Example 2, 5-ethynyl-6-fluoro-4-(8-fluoro-2-(((2R,7aS)-2-fluorotetrahydro-1H-pyrrolizin-7a(5H)-yl)methoxy)-4-(1-((methoxy-d3)methyl)-3,8-diazabicyclo [3.2.1]octan-3-yl)pyrido[4,3-d]pyrimidin-7-yl)naphthalen-2-ol], the IC50 (KRAS^G12D/cRAF; class symbols) is reported as 50 to 500 nM, the IC50 (AGS cell; [2]) is reported as < 50 nM and the AUC(0-t) ([1]; po, 10 mg/kg) is reported as 602 ng·h/mL. For the same compound, the half-life ([1]; po, 10 mg/kg) was 8.3 h.

`C#Cc1c(F)ccc2cc(O)cc(-c3ncc4c(N5CC6CCC(C=C)(C5)N6)nc(OC[C@@]56CCCN5C[C@H](F)C6)nc4c3F)c12` (stereo partly drawn) [Example 5, 5-ethynyl-6-fluoro-4-(8-fluoro-2-(((2R,7aS)-2-fluorotetrahydro-1H-pyrrolizin-7a(5H)-yl)methoxy)-4-(1-vinyl-3,8-diazabicyclo[3.2.1]octan-3-yl)pyrido[4,3-d]pyrimidin-7-yl)naphthalen-2-ol] gave an IC50 (KRAS^G12D/cRAF; numeric values) of 72 nM, an IC50 (AGS cell; [3]) of 15 nM and an AUC(0-t) ([1]; po, 10 mg/kg) of 489 ng·h/mL. For the same compound, the half-life ([1]; po, 10 mg/kg) was 6.3 h.

With `C#Cc1c(F)ccc2cc(O)cc(-c3ncc4c(N5CC6CCC(C(C)OC)(C5)N6)nc(OC[C@@]56CCCN5C[C@H](F)C6)nc4c3F)c12` (stereo partly drawn) [Example 12, 5-ethynyl-6-fluoro-4-(8-fluoro-2-(((2R,7aS)-2-fluorotetrahydro-1H-pyrrolizin-7a(5H)-yl)methoxy)-4-(1-(1-methoxyethyl)-3,8-diazabicyclo[3.2.1]octan-3-yl)pyrido[4,3-d]pyrimidin-7-yl) naphthalen-2-ol] the IC50 (KRAS^G12D/cRAF; class symbols) was 50 to 500 nM, the IC50 (AGS cell; [2]) was < 50 nM and the AUC(0-t) ([1]; po, 10 mg/kg) was 1740 ng·h/mL. The half-life ([1]; po, 10 mg/kg) was 7.2 h.

In the case of `[2H]C([2H])([2H])OCC12CCC(CN(c3nc(OC[C@@]45CCCN4C[C@H](F)C5)nc4c(F)c(-c5cc(O)c(F)c6ccc(F)c(C#C)c56)ncc34)C1)N2` (stereo partly drawn) [Example 14, 5-ethynyl-1,6-difluoro-4-(8-fluoro-2-(((2R,7aS)-2-fluorotetrahydro-1H-pyrrolizin-7a(5H)-yl)methoxy)-4-(1-((methoxy-d3)methyl)-3,8-diazabicyclo[3.2.1]octan-3-yl)pyrido[4,3-d]pyrimidin-7-yl)naphthalen-2-ol], the AUC(0-t) (in vivo) is reported as 607 ng·h/mL, the half-life (in vivo) is reported as 5.8 h and the IC50 (AGS cell; [2]) is reported as > 500 nM.

In the case of `C#Cc1c(F)ccc2cc(O)cc(-c3ncc4c(N5CC6CCC(COCC)(C5)N6)nc(OC[C@@]56CCCN5C[C@H](F)C6)nc4c3F)c12` (stereo partly drawn) [Example 32, 4-(4-(1-(ethoxymethyl)-3,8-diazabicyclo[3.2.1]octan-3-yl)-8-fluoro-2-(((2R,7aS)-2-fluorotetrahydro-1H-pyrrolizin-7a(511)-yl)methoxy)pyrido[4,3-d]pyrimidin-7-yl)-5-ethynyl-6-fluoronaphthalen-2-ol], the IC50 (KRAS^G12D/cRAF; class symbols) is reported as 50 to 500 nM, the IC50 (AGS cell; AGS, read-out: AGS cell IC50 (nM)) is reported as < 50 nM and the AUC(0-t) ([1]; po, 10 mg/kg) is reported as 2200 ng·h/mL. The half-life ([1]; po, 10 mg/kg) was 4.6 h.

In the case of `[2H]C([2H])([2H])C12CCC(CN(c3nc(OC[C@@]45CCCN4C[C@H](F)C5)nc4c(F)c(-c5cc(O)cc6ccc(F)c(C#C)c56)nc(OC)c34)C1)N2` (stereo partly drawn) [Example 38, 5-ethynyl-6-fluoro-4-(8-fluoro-2-(((2R,7aS)-2-fluorotetrahydro-1H-pyrrolizin-7a(5H)-yl)methoxy)-5-methoxy-4-(1-(methyl-d3)-3,8-diazabicyclo [3.2.1]octan-3-yl)pyrido [4,3-d]pyrimidin-7-yl)naphthalen-2-ol], the IC50 (KRAS^G12D/cRAF; class symbols) is reported as < 50 nM, the IC50 (AGS cell; [2]) is reported as 50 to 500 nM and the AUC(0-t) ([1]; po, 10 mg/kg) is reported as 115 ng·h/mL. For the same compound, the half-life ([1]; po, 10 mg/kg) was 9.2 h.

With `[2H]C([2H])([2H])[C@@]12CC[C@@H](CN(c3nc(OC[C@@]45CCCN4C[C@H](F)C5)nc4c(F)c(-c5cc(O)cc6ccc(F)c(C#C)c56)ncc34)C1)N2` [Example 43, 5-ethynyl-6-fluoro-4-(8-fluoro-2-(((2R,7aS)-2-fluorotetrahydro-1H-pyrrolizin-7a(5 H)-yl)methoxy)-4-((1R,5S)-1-(methyl-d3)-3,8-diazabicyclo[3.2.1]octan-3-yl)pyrido[4,3-d]pyrimidin-7-yl)naphthalen-2-ol] the IC50 (KRAS^G12D/cRAF; numeric values) was 4.6 nM, the IC50 (AGS cell; [3]) was 1.5 nM and the AUC(0-t) ([1]; iv, 2 mg/kg) was 214 ng·h/mL. It also gave a half-life ([1]; iv, 2 mg/kg) of 5.4 h, an AUC(0-t) ([1]; po, 10 mg/kg) of 733 ng·h/mL and a bioavailability ([1]; po, 10 mg/kg) of 5.8%. It also gave a half-life ([1]; po, 10 mg/kg) of 15.7 h.

`[2H]C([2H])([2H])OC[C@@]12CC[C@@H](CN(c3nc(OC[C@@]45CCCN4C[C@H](F)C5)nc4c(F)c(-c5cc(O)cc6ccc(F)c(C#C)c56)nc(OC)c34)C1)N2` [Example 50, 5-ethynyl-6-fluoro-4-(8-fluoro-2-(((2R,7aS)-2-fluorotetrahydro-1H-pyrrolizin-7a(5H)-yl)methoxy)-5-methoxy-4-((1R,5S)-1-((methoxy-d3)methyl)-3,8-diazabicyclo[3.2.1]octan-3-yl)pyrido[4,3-d]pyrimidin-7-yl)naphthalen-2-ol] showed an IC50 (KRAS^G12D/cRAF; numeric values) of 10 nM, an IC50 (AGS cell; [3]) of 6.5 nM and an AUC(0-t) ([1]; iv, 2 mg/kg) of 1100 ng·h/mL. It also gave a half-life ([1]; iv, 2 mg/kg) of 6.7 h, an AUC(0-t) ([1]; po, 10 mg/kg) of 2660 ng·h/mL and a bioavailability ([1]; po, 10 mg/kg) of 48%. It also gave a half-life ([1]; po, 10 mg/kg) of 6.4 h.

`[2H]C([2H])([2H])OC[C@]12CC[C@H](CN(c3nc(OC[C@@]45CCCN4C[C@H](F)C5)nc4c(F)c(-c5cc(O)cc6ccc(F)c(C#C)c56)nc(OCC)c34)C1)N2` [Example 51, 4-(5-ethoxy-8-fluoro-2-(((2R,7aS)-2-fluorotetrahydro-1H-pyrrolizin-7a(5H)-yl)methoxy)-4-((1S,5R)-1-((methoxy-d3)methyl)-3,8-diazabicyclo[3.2.1]octan-3-yl)pyrido[4,3-d]pyrimidin-7-yl)-5-ethynyl-6-fluoronaphthalen-2-ol] gave an AUC(0-t) ([1]; iv, 2 mg/kg) of 1570 ng·h/mL, a half-life ([1]; iv, 2 mg/kg) of 5.4 h and an AUC(0-t) ([1]; po, 10 mg/kg) of 1120 ng·h/mL. It also gave a bioavailability ([1]; po, 10 mg/kg) of 28% and a half-life ([1]; po, 10 mg/kg) of 6.2 h.

In the case of `C#Cc1c(F)ccc2cc(O)cc(-c3ncc4c(N5C[C@@H]6CC[C@](CC)(C5)N6)nc(OC[C@@]56CCCN5C[C@H](F)C6)nc4c3F)c12` [Example 54, 4-(4-((1R,5S)-1-ethyl-3,8-diazabicyclo[3.2.1]octan-3-yl)-8-fluoro-2-(((2R,7aS)-2-fluorotetrahydro-1H-pyrrolizin-7a(5H)-yl)methoxy)pyrido[4,3-d]pyrimidin-7-yl)-5-eth ynyl-6-fluoronaphthalen-2-ol], the IC50 (KRAS^G12D/cRAF; numeric values) is reported as 55 nM, the IC50 (AGS cell; [3]) is reported as 7.3 nM and the AUC(0-t) ([1]; iv, 2 mg/kg) is reported as 460 ng·h/mL. It also gave a half-life ([1]; iv, 2 mg/kg) of 7.7 h, an AUC(0-t) ([1]; po, 10 mg/kg) of 1160 ng·h/mL and a bioavailability ([1]; po, 10 mg/kg) of 51%. The half-life ([1]; po, 10 mg/kg) was 9.8 h.

Work on `C#Cc1c(F)ccc2cc(O)cc(-c3ncc4c(N5C[C@H]6CC[C@@](CCF)(C5)N6)nc(OC[C@@]56CCCN5C[C@H](F)C6)nc4c3F)c12` [Example 55, 5-ethynyl-6-fluoro-4-(8-fluoro-4-((1R,5R)-1-(2-fluoroethyl)-3,8-diazabicyclo[3.2.1]octan-3-yl)-2-(((2R,7aS)-2-fluorotetrahydro-1H-pyrrolizin-7a(5H)-yl)methoxy)pyrido[4,3-d]pyrimidin-7-yl)naphthalen-2-ol] yielded an IC50 (AGS cell; [2]) of 50 to 500 nM, an AUC(0-t) ([1]; po, 10 mg/kg) of 296 ng·h/mL and a half-life ([1]; po, 10 mg/kg) of 7.4 h.

In the case of `C#Cc1c(F)ccc2cc(O)cc(-c3ncc4c(N5C[C@H]6CC[C@@](C=C)(C5)N6)nc(OC[C@@]56CCCN5C[C@H](F)C6)nc4c3F)c12` [Example 57, 5-ethynyl-6-fluoro-4-(8-fluoro-2-(((2R,7aS)-2-fluorotetrahydro-1H-pyrrolizin-7a(5 H)-yl)methoxy)-4-((1R,5R)-1-vinyl-3,8-diazabicyclo[3.2.1]octan-3-yl)pyrido[4,3-d]pyrimidin-7-yl)naphthalen-2-ol], the IC50 (KRAS^G12D/cRAF; numeric values) is reported as 15 nM, the IC50 (AGS cell; [3]) is reported as 8.1 nM and the AUC(0-t) ([1]; iv, 2 mg/kg) is reported as 375 ng·h/mL. For the same compound, the half-life ([1]; iv, 2 mg/kg) was 5.1 h, the AUC(0-t) ([1]; po, 10 mg/kg) was 1790 ng·h/mL and the bioavailability ([1]; po, 10 mg/kg) was 95%. The half-life ([1]; po, 10 mg/kg) was 4.5 h.

`C#Cc1c(F)ccc2cc(O)cc(-c3ncc4c(N5CC6CCC(C5)N6)nc(OC[C@@]56CCCN5C[C@H](F)C6)nc4c3F)c12` [Positive Compounds, reference compound] gave an AUC(0-t) ([1]; iv, 2 mg/kg) of 337 ng·h/mL, a half-life ([1]; iv, 2 mg/kg) of 3.1 h and an AUC(0-t) ([1]; po, 10 mg/kg) of 40 ng·h/mL. For the same compound, the bioavailability ([1]; po, 10 mg/kg) was 2.4% and the half-life ([1]; po, 10 mg/kg) was 1.6 h.

— US20260176262A1, “KRAS INHIBITORS, PREPARATION METHOD THEREFOR, AND PHARMACEUTICAL USE THEREOF” (ABBISKO THERAPEUTICS CO., LTD., priority 2021, published 2026)
